Where two headings read alike, the source gives them in different places.
How the values were obtained:
[1] = system: human normal keratinocyte cells (HaCaT); experiment: MTT cytotoxicity assay; type: cell-based; conditions: 48 h, read-out: IC50 values HaCaT
Protocol: In order to investigate the selectivity of the compounds for cancer cells rather than normal cell lines, the compounds were also screened for their anticancer activity on the human normal keratinocyte cells (HaCaT).
(§1) Cytotoxic activity of the compounds was tested with human lung cancer cell lines A549, human breast cancer cell lines MCF-7 and human normal keratinocyte cells (HaCaT) by using MTT assay, which was done according to the earlier literature methods[77] and IC50 values obtained from nonlinear regression using GraphPad Prism 5.[78] The LDH release[79] and NO release[80] assays of the compounds was evaluated by the earlier reported methods.

P. aeruginosa = experiment: In vitro antibacterial assay (zone of inhibition, MIC); type: cell-based, Pseudomonas aeruginosa; conditions: for zone of inhibition at 50 µg/mL / zone of inhibition at 100 µg/mL: Pseudomonas aeruginosa
Protocol: (§2) The free ligands and their cyclometallated ruthenium(II) carbonyl complexes were screened for their in vitro antimicrobial activity against certain pathogenic bacterial and fungal species at three different concentrations using disc diffusion method.
(§3) Antimicrobial activities of [RuHClCO(PPh3)3], ligands H2L^1–4 and new organometallic Ru(II) complexes (1–4) were evaluated by agar well diffusion method[76] as reported, by taking Staphylococcus aureus, Streptococcus pneumonie, Pseudomonas aeruginosa, Salmonella paratyphi and fungus such as Candida albicans, Trichophyton rubrum, Aspergillus niger, Aspergillus fumigatus and Candida tropicalis. The above said all test organisms were obtained from the MTCC, Chandigarh, India and Microbiological laboratory, Coimbatore, Tamil Nadu, India. The antimicrobial activity of the test compounds was checked with various concentrations (25 μg ml^−1, 50 μg ml^−1 and 100 μg ml^−1) against all the test pathogens. Gentamicin and ketoconazole were used as positive controls to study the antibacterial and antifungal activities respectively. Each experiment was performed in triplicate and the results are represented as average zone of inhibition and minimum inhibitory concentration of all the test pathogens.

S. paratyphi = experiment: as above; type: cell-based, Salmonella paratyphi; conditions: for zone of inhibition at 50 µg/mL / zone of inhibition at 100 µg/mL: Salmonella enterica
Source text: The free ligands and their cyclometallated ruthenium(II) carbonyl complexes were screened for their in vitro antimicrobial activity against certain pathogenic bacterial and fungal species at three different concentrations using disc diffusion method. […] Tested complexes had better antimicrobial activity than the ligands against all pathogens. This may be explained by Tweedy's chelation theory.[61] Coordination of ligands reduce the polarity of the metal ion essentially by partial sharing of its positive charge with the donor groups within the chelate ring system formed during the coordination and leading to the increase in lipophilic nature of the central metal atom, which favours the effective permeation through the lipid layer of microorganism.[61,62] […] When tested against T. rubrum, the activity of the complexes in the order of 3 > 2 > 1 > 4. In antibacterial studies, the complex 3 was effective against S. aureus followed by complex 2, 1 and 4 and in the case of S. pneumonie the activity of the complexes follows the order of 3 > 1 > 4 > 2. […] When tested against S. paratyphi complex 1 stood out as good followed by the complexes 4, 3 and 2 respectively.
as §3

[2] = system: human lung carcinoma cancer cell line A549; experiment: MTT cytotoxicity assay; type: cell-based; conditions: read-out: IC50 values A549
Source text: (§4) The DNA/protein binding studies, antioxidant and antimicrobial studies had shown that the ligands and ruthenium(II) complexes studied here have therapeutic potentials and were subjected to study their anticancer activity. A number of coumarin derivatives have shown considerable anticancer activity against a number of cell lines. All the 3-acetyl-7-methoxy-coumarin-4(N)-substituted thiosemicarbazone ligands, metal precursor [RuHClCO(PPh3)3] and their new cyclometallated Ru(II) complexes were assessed for their cytotoxicity with two human derived cell lines namely human lung carcinoma (A549) and human breast cancer cells (MCF-7) by using MTT assay. For comparison purpose, cisplatin was used as a positive control under identical conditions.
as §1

[3] = system: human breast cancer cell line MCF-7; experiment: MTT cytotoxicity assay; type: cell-based; conditions: read-out: IC50 values MCF-7
Source text: as §4, §1

C. albicans = experiment: In vitro antifungal assay (zone of inhibition, MIC); type: cell-based, Candida albicans; conditions: for zone of inhibition at 50 µg/mL / zone of inhibition at 100 µg/mL: Candida albicans
Protocol: as §2, §3

S. pneumonie = experiment: In vitro antibacterial assay (zone of inhibition, MIC); type: cell-based, Streptococcus pneumonie; conditions: for zone of inhibition at 50 µg/mL / zone of inhibition at 100 µg/mL: Streptococcus
Protocol: as §2, §3

Aspergillus niger = experiment: In vitro antifungal assay (zone of inhibition, MIC); type: cell-based
Protocol: as §2, §3

Aspergillus fumigatus = experiment: as above; type: cell-based
Protocol: as §2, §3

Candida tropicalis = experiment: as above; type: cell-based
Protocol: as §2, §3

Trichophyton rubrum = experiment: as above; type: cell-based
Protocol: as §2, §3

S. aureus = experiment: In vitro antibacterial assay (zone of inhibition, MIC); type: cell-based, Staphylococcus aureus; conditions: for zone of inhibition at 50 µg/mL / zone of inhibition at 100 µg/mL: Staphylococcus aureus
Protocol: as §2, §3

## CCNC(=S)NN=C(C)c1cc2ccc(OC)cc2oc1=O [H2L^3, ((1E)-1-(1-(7-methoxy-2-oxo-2H-chromen-3-yl)ethylidene) 4(N)-ethylthiosemicarbazone)]
[1]; Homo sapiens, HaCaT
  IC50: > 40 µM
P. aeruginosa
  zone of inhibition at 50 µg/mL: 12.5 ± 0.34 mm
  zone of inhibition at 100 µg/mL: 16.4 ± 0.23 mm
S. paratyphi; 50 µg/ml
  zone of inhibition at 50 µg/mL: 12.2 ± 0.25 mm
S. paratyphi; 100 µg/ml
  zone of inhibition at 100 µg/mL: 17.1 ± 0.32 mm
[2]; Homo sapiens, A549, 48 h
  IC50: 11.6 ± 0.15 µM
[3]; Homo sapiens, MCF7, 48 h
  IC50: 11.3 ± 0.21 µM
C. albicans
  zone of inhibition at 50 µg/mL: 11.3 ± 0.12 mm
  zone of inhibition at 100 µg/mL: 18.2 ± 0.22 mm
S. pneumonie
  zone of inhibition at 50 µg/mL: 11.2 ± 0.15 mm
  zone of inhibition at 100 µg/mL: 17.2 ± 0.21 mm
Aspergillus niger
  zone of inhibition at 50 µg/mL: 12.6 ± 0.31 mm
  zone of inhibition at 100 µg/mL: 17.62 ± 0.12 mm
Aspergillus fumigatus
  zone of inhibition at 50 µg/mL: 12.2 ± 0.51 mm
  zone of inhibition at 100 µg/mL: 18.2 ± 0.24 mm
Candida tropicalis
  zone of inhibition at 50 µg/mL: 12.3 ± 0.51 mm
  zone of inhibition at 100 µg/mL: 17.2 ± 0.51 mm
Trichophyton rubrum
  zone of inhibition at 50 µg/mL: 13.56 ± 0.05 mm
  zone of inhibition at 100 µg/mL: 19.1 ± 0.21 mm
S. aureus
  zone of inhibition at 50 µg/mL: 12.3 ± 0.41 mm
  zone of inhibition at 100 µg/mL: 15.6 ± 0.65 mm

## COc1ccc2[c]3c(c(=O)oc2c1)C(C)=[N+]1N=C(Nc2ccccc2)[S][Ru-4]31([C]#[O+])([P+](c1ccccc1)(c1ccccc1)c1ccccc1)[P+](c1ccccc1)(c1ccccc1)c1ccccc1 [Complex 4, [Ru(7MAC-ptsc)(CO)(PPh3)2]]
[1]; MTT, normal cells
  IC50: > 40 µM
P. aeruginosa; P. aeruginosa
  Minimum inhibitory concentration (MIC); head: IC50 VALUES: 15.66 ± 0.16 µM
P. aeruginosa; P. aeruginosa, 50 µg/ml
  Zone of inhibition: 12.33±0.53 mm
P. aeruginosa; P. aeruginosa, 100 µg/ml
  Zone of inhibition: 16.85±0.62 mm
S. paratyphi; 50 µg/ml
  Zone of inhibition: 12.31±0.38 mm
S. paratyphi; 100 µg/ml
  Zone of inhibition: 17.55±0.54 mm
[2]; MTT, 48 h
  IC50: 3.05 ± 0.12 µM
[3]; MTT, 48 h
  IC50: 3.02 ± 0.05 µM
C. albicans; C. albicans
  Minimum inhibitory concentration (MIC); head: IC50 VALUES: 14.65 ± 0.13 µM
C. albicans; C. albicans, 50 µg/ml
  Zone of inhibition: 12.49±0.14 mm
C. albicans; C. albicans, 100 µg/ml
  Zone of inhibition: 17.19±0.66 mm
S. pneumonie; S. pneumonie
  Minimum inhibitory concentration (MIC); head: IC50 VALUES: 15.89 ± 0.12 µM
S. pneumonie; S. pneumonie, 50 µg/ml
  Zone of inhibition: 12.31±0.48 mm
S. pneumonie; S. pneumonie, 100 µg/ml
  Zone of inhibition: 16.54±0.12 mm
Aspergillus niger
  Minimum inhibitory concentration (MIC); head: IC50 VALUES: 14.80 ± 0.25 µM
Aspergillus niger; 50 µg/ml
  Zone of inhibition: 11.55±0.26 mm
Aspergillus niger; 100 µg/ml
  Zone of inhibition: 17.66±0.13 mm
Aspergillus fumigatus
  Minimum inhibitory concentration (MIC); head: IC50 VALUES: 14.45 ± 0.13 µM
Aspergillus fumigatus; 50 µg/ml
  Zone of inhibition: 12.36±0.52 mm
Aspergillus fumigatus; 100 µg/ml
  Zone of inhibition: 18.15±0.45 mm
Candida tropicalis
  Minimum inhibitory concentration (MIC); head: IC50 VALUES: 13.54 ± 0.21 µM
Candida tropicalis; 50 µg/ml
  Zone of inhibition: 12.43±0.12 mm
Candida tropicalis; 100 µg/ml
  Zone of inhibition: 17.13±0.57 mm
Trichophyton rubrum
  Minimum inhibitory concentration (MIC); head: IC50 VALUES: 15.52 ± 0.27 µM
Trichophyton rubrum; 50 µg/ml
  Zone of inhibition: 12.41±0.56 mm
Trichophyton rubrum; 100 µg/ml
  Zone of inhibition: 18.42±0.18 mm
S. aureus; S. aureus
  Minimum inhibitory concentration (MIC); head: IC50 VALUES: 18.25 ± 0.11 µM
S. aureus; S. aureus, 50 µg/ml
  Zone of inhibition: 12.21±0.42 mm
S. aureus; S. aureus, 100 µg/ml
  Zone of inhibition: 18.11±0.11 mm

## COc1ccc2cc(C(C)=NNC(N)=S)c(=O)oc2c1 [H2L^1, ((1E)-1-(1-(7-methoxy-2-oxo-2H-chromen-3-yl)ethylidene)thiosemicarbazone)]
[1]; Homo sapiens, HaCaT
  IC50: > 40 µM
P. aeruginosa
  zone of inhibition at 50 µg/mL: 13.2 ± 0.41 mm
  zone of inhibition at 100 µg/mL: 18.1 ± 0.24 mm
S. paratyphi; 50 µg/ml
  zone of inhibition at 50 µg/mL: 13.2 ± 0.77 mm
S. paratyphi; 100 µg/ml
  zone of inhibition at 100 µg/mL: 16.5 ± 0.46 mm
[2]; Homo sapiens, A549, 48 h
  IC50: 12.6 ± 0.17 µM
[3]; Homo sapiens, MCF7, 48 h
  IC50: 13.1 ± 0.29 µM
C. albicans
  zone of inhibition at 50 µg/mL: 11.2 ± 0.14 mm
  zone of inhibition at 100 µg/mL: 17 ± 0.91 mm
S. pneumonie
  zone of inhibition at 50 µg/mL: 12.38 ± 0.12 mm
  zone of inhibition at 100 µg/mL: 16.4 ± 0.31 mm
Aspergillus niger
  zone of inhibition at 50 µg/mL: 13.1 ± 0.33 mm
  zone of inhibition at 100 µg/mL: 17.41 ± 0.14 mm
Aspergillus fumigatus
  zone of inhibition at 50 µg/mL: 11.2 ± 0.73 mm
  zone of inhibition at 100 µg/mL: 17.4 ± 0.22 mm
Candida tropicalis
  zone of inhibition at 50 µg/mL: 11.93 ± 0.01 mm
  zone of inhibition at 100 µg/mL: 17.4 ± 0.51 mm
Trichophyton rubrum
  zone of inhibition at 50 µg/mL: 13.2 ± 0.16 mm
  zone of inhibition at 100 µg/mL: 17.3 ± 0.51 mm
S. aureus
  zone of inhibition at 50 µg/mL: 13 ± 0.23 mm
  zone of inhibition at 100 µg/mL: 17.19 ± 0.16 mm

— paper PMC9077138, “An investigation on 3-acetyl-7-methoxy-coumarin Schiff bases and their Ru(II) metallates with potent antiproliferative activity and enhanced LDH and NO release” (RSC Advances, 2018)
